Measurements published in patent US10800772B2 (Gilead Sciences, Inc., priority 2016, dated 2020).
Like-named read-outs stand apart in the source and are kept apart here.

What was measured:
HIV-IIIb IN T174I DE = assay: Antiviral assay in MT4 cells, HIV-IIIb IN T174I DE virus (from dose escalation passaging); format: cell-based, HIV-1; details: Human immunodeficiency virus 1, IIIB, MT4, 120 h, read-out: T174I DE EC50, MT4 cells, HIV-IIIb IN T174I DE (dose escalation), 5 days, CellTiter-Glo
Outline: (§1)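 Compounds were titrated as 3-fold serial dilutions at 10 concentrations, in quadruplicate, against 2000 MT4 cells/well that had been infected for 3 h with HIV-IIIb at 0.004 m.o.i. Viruses were wildtype or integrase T174I mutants from breakthrough selection or dose-escalation passaging; mock-infected cells were run in parallel. After 5 days' culture, EC50 was derived as 50% reduction of CellTiter-Glo luminescence, which reflects HIV-1 replication.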

[1] = Hum MS stability (human microsomal stability half-life); details: human microsomes
HIV-IIIb IN T174I BT = assay: Antiviral assay in MT4 cells, HIV-IIIb IN T174I BT virus (from viral breakthrough); format: cell-based, HIV-1; details: Human immunodeficiency virus 1, IIIB, MT4, 120 h, read-out: T174I BT EC50, MT4 cells, HIV-IIIb IN T174I BT (viral breakthrough), 5 days, CellTiter-Glo
Outline: as §1

HIV-IIIb (wildtype) = assay: Antiviral assay in MT4 cells, HIV-IIIb wildtype; format: cell-based, HIV-1; details: read-out: WT EC50
Outline: as §1

[2] = Human immunodeficiency virus 1, IIIB, MT4, 120 h

Compound | EC50 (HIV-IIIb IN T174I DE) [nM] | half-life [1] [h] | EC50 (HIV-IIIb IN T174I BT) [nM] | EC50 (HIV-IIIb (wildtype); Human immunodeficiency virus 1, 120 h, MT4 cells, HIV-IIIb wildtype, 5 days, CellTiter-Glo) [nM] | EC50 (HIV-IIIb (wildtype); [2]) [nM]
[2H]C([2H])([2H])C(O[C@H](C(=O)O)c1c(C)cc2nc(-c3ccc4c(c3)c(C3CCN(C5COC5)CC3)nn4C)sc2c1-c1ccc(Cl)cc1)(C([2H])([2H])[2H])C([2H])([2H])[2H] [Compound 21, (S)-2-(7-(4-chlorophenyl)-5-methyl-2-(1-methyl-3-(1-(oxetan-3-yl)piperidin-4-yl)-1H-indazol-5-yl)benzo[d]thiazol-6-yl)-2-((2-(methyl-d3)propan-2-yl-1,1,1,3,3,3-d6)oxy)acetic Acid] | 239 | 3.3 | 124 | 4 | 
Cc1cc2nc(-c3ccc4c(c3)c(C3CCN(S(C)(=O)=O)CC3)nn4C)sc2c(-c2ccc(Cl)cc2)c1[C@H](OC(C)(C)C)C(=O)O [Compound 25, (S)-2-(tert-butoxy)-2-(7-(4-chlorophenyl)-5-methyl-2-(1-methyl-3-(1-(methylsulfonyl)piperidin-4-yl)-1H-indazol-5-yl)benzo[d]thiazol-6-yl)acetic acid] | 806 | 4.25 | 404 |  | 10
Cc1cc2nc(-c3ccc4c(c3)c(C3CCOC3)nn4C)sc2c(-c2ccc(Cl)cc2)c1[C@H](OC(C)(C)C)C(=O)O (stereo partly drawn) [Compound 52, (2S)-2-(tert-butoxy)-2-(7-(4-chlorophenyl)-5-methyl-2-(1-methyl-3-(tetrahydrofuran-3-yl)-1H-indazol-5-yl)benzo[d]thiazol-6-yl)acetic acid] | 946 | 3.72 | 905 |  | 8
COCC(COC)N1CC(c2nn(C)c3ccc(-c4nc5cc(C)c([C@H](OC(C)(C)C)C(=O)O)c(-c6ccc(Cl)cc6)c5s4)cc23)C1 [Compound 61, (S)-2-(tert-butoxy)-2-(7-(4-chlorophenyl)-2-(3-(1-(1,3-dimethoxypropan-2-yl)azetidin-3-yl)-1-methyl-1H-indazol-5-yl)-5-methylbenzo[d]thiazol-6-yl)acetic acid] | 2700 | 3.62 | 1610 |  | 7
Cc1cc2nc(-c3ccc4c(c3)c(C3CCN(C5COC5)C3)nn4C)sc2c(-c2ccc(Cl)cc2)c1[C@H](OC(C)(C)C)C(=O)O (stereo partly drawn) [Compound 70, (2S)-2-(tert-butoxy)-2-(7-(4-chlorophenyl)-5-methyl-2-(1-methyl-3-(1-(oxetan-3-yl)pyrrolidin-3-yl)-1H-indazol-5-yl)benzo[d]thiazol-6-yl)acetic acid] | 942 | 5.87 | 587 |  | 7
COCCOC(=O)N1CCC(c2nn(C)c3ccc(-c4nc5cc(C)c([C@H](OC(C)(C)C)C(=O)O)c(-c6ccc(Cl)cc6)c5s4)cc23)C1 (stereo partly drawn) [Compound 73, (2S)-2-(tert-butoxy)-2-(7-(4-chlorophenyl)-2-(3-(1-((2-methoxyethoxy)carbonyl)pyrrolidin-3-yl)-1-methyl-1H-indazol-5-yl)-5-methylbenzo[d]thiazol-6-yl)acetic acid] | 823 | 3.05 | 720 |  | 6
CC(=O)N1CCC(c2nn(C)c3ccc(-c4nc5cc(C)c([C@H](OC(C)(C)C)C(=O)O)c(-c6ccc(Cl)cc6)c5s4)cc23)C1 (stereo partly drawn) [Compound 74, (2S)-2-(2-(3-(1-acetylpyrrolidin-3-yl)-1-methyl-1H-indazol-5-yl)-7-(4-chlorophenyl)-5-methylbenzo[d]thiazol-6-yl)-2-(tert-butoxy)acetic acid] | 587 | 3.32 | 349 |  | 10
COCCN1CCCC(c2nn(C)c3ccc(-c4nc5cc(C)c([C@H](OC(C)(C)C)C(=O)O)c(-c6ccc(Cl)cc6)c5s4)cc23)C1 (stereo partly drawn) [Compound 77, (2S)-2-(tert-butoxy)-2-(7-(4-chlorophenyl)-2-(3-(1-(2-methoxyethyl)piperidin-3-yl)-1-methyl-1H-indazol-5-yl)-5-methylbenzo[d]thiazol-6-yl)acetic acid] | 3270 | 2.17 | 1810 |  | 9
Cc1cc2nc(-c3ccc4c(c3)c(N3CCN(C)C3=O)nn4C)sc2c(-c2ccc(Cl)cc2)c1[C@H](OC(C)(C)C)C(=O)O [Compound 80, (S)-2-(tert-butoxy)-2-(7-(4-chlorophenyl)-5-methyl-2-(1-methyl-3-(3-methyl-2-oxoimidazolidin-1-yl)-1H-indazol-5-yl)benzo[d]thiazol-6-yl)acetic Acid] | 2280 | 5.42 | 1510 |  | 13
Cc1cc2nc(-c3ccc4c(c3)c(N3CC[C@@H](N(C)C)C3)nn4C)sc2c(-c2ccc(Cl)cc2)c1[C@H](OC(C)(C)C)C(=O)O [Compound 92, (S)-2-(tert-butoxy)-2-(7-(4-chlorophenyl)-2-(3-((R)-3-(dimethylamino)pyrrolidin-1-yl)-1-methyl-1H-indazol-5-yl)-5-methylbenzo[d]thiazol-6-yl)acetic acid] | 1940 | 6.05 | 938 |  | 14
COCCN1CCN(c2nn(C)c3ccc(-c4nc5cc(C)c([C@H](OC(C)(C)C)C(=O)O)c(-c6ccc(Cl)cc6)c5s4)cc23)CC1 [Compound 98, (S)-2-(tert-butoxy)-2-(7-(4-chlorophenyl)-2-(3-(4-(2-methoxyethyl)piperazin-1-yl)-1-methyl-1H-indazol-5-yl)-5-methylbenzo[d]thiazol-6-yl)acetic acid] | 516 | 3.17 | 290 |  | 4
CCOCCN1CCN(c2nn(C)c3ccc(-c4nc5cc(C)c([C@H](OC(C)(C)C)C(=O)O)c(-c6ccc(Cl)cc6)c5s4)cc23)CC1 [Compound 99, (S)-2-(tert-butoxy)-2-(7-(4-chlorophenyl)-2-(3-(4-(2-ethoxyethyl)piperazin-1-yl)-1-methyl-1H-indazol-5-yl)-5-methylbenzo[d]thiazol-6-yl)acetic Acid] | 759 | 4.33 | 485 |  | 6
Cc1cc2nc(-c3ccc4c(c3)c(N3CCN(CC5CC5)CC3)nn4C)sc2c(-c2ccc(Cl)cc2)c1[C@H](OC(C)(C)C)C(=O)O [Compound 100, (S)-2-(tert-butoxy)-2-(7-(4-chlorophenyl)-2-(3-(4-(cyclopropylmethyl)piperazin-1-yl)-1-methyl-1H-indazol-5-yl)-5-methylbenzo[d]thiazol-6-yl)acetic acid] | 3590 | 3.23 | 1880 |  | 10
Cc1cc2nc(-c3ccc4c(c3)c(N3CCN(C)CC3)nn4C)sc2c(-c2ccc(Cl)cc2)c1[C@H](OC1CC1)C(=O)O [Compound 103, (S)-2-(7-(4-chlorophenyl)-5-methyl-2-(1-methyl-3-(4-methylpiperazin-1-yl)-1H-indazol-5-yl)benzo[d]thiazol-6-yl)-2-cyclopropoxyacetic acid] | 367 | 2.47 | 267 |  | 32
Cc1cc2nc(-c3ccc4c(c3)c(N3CC(C)(C)N(C)C3=O)nn4C)sc2c(-c2ccc(Cl)cc2)c1[C@H](OC(C)(C)C)C(=O)O [Compound 122, (S)-2-(tert-butoxy)-2-(7-(4-chlorophenyl)-5-methyl-2-(1-methyl-3-(3,4,4-trimethyl-2-oxoimidazolidin-1-yl)-1H-indazol-5-yl)benzo[d]thiazol-6-yl)acetic acid] | 3810 | 4.48 | 1440 |  | 14
